From patent US7994326B2 (Northwestern University, priority 2003, dated 2011)
Like-named read-outs stand apart in the source and are kept apart here.

What was measured:
Type in all cases: biochemical
rat nNOS = target: T1, rat nNOS (Rattus norvegicus, UniProt P29476); test: NOS enzyme inhibitory assay (hemoglobin capture), nNOS; details: for IC50: rat nNOS, 10 μM L-arginine
T1 construct: made in house; host or cells: E. coli (plasmid pCWnNOS)
Experimental: (§1) All of the NOS isoforms used were recombinant enzymes overexpressed in E. coli from different sources. Nitric oxide formation from NOS was monitored by the hemoglobin capture assay as described in the literature.
After approximately 48 h of post-induction incubation in the dark at 25° C. the cells were pelleted at 5300×g, transferred to 50 mL conical tubes, and stored at −80° C.
nNOS purification: Cell pellets from 2.0 L of culture were resuspended in sonication Buffer A (50 mM Tris Base Buffer, pH 8.0, 10% glycerol), 2 mg/ml lysozyme. 0.5 mM L-arginine. 1 mM EDTA, 0.1 mM PMSF, 1 µg/ml antipain, and 1 μM each of leupeptin, […], and […]) and lysed by sonication. Centrifugation for 1 h at 100000×g yielded supernatant which contained nNOS active enzyme. The supernatant was brought to 2 mM CaCl2 and the protein was loaded onto a 15 ml calmodulin-Sepharose column equilibrated with Buffer A containing 2 mM CaCl2. The column was washed with 100 ml Buffer B (50 mM Hepes, 5 mM DTT, and […]) containing 2 mM CaCl2, 0.5 mM L-arginine, and 10 μM BH4, and eluted with 30 ml Buffer B supplemented with 0.3 M NaCl, 5 mM EGTA, 0.5 mM L-arginine, and 10 μM BH4. The protein was then loaded onto a 5 ml 2′,5′-ADP-Sepharose column equilibrated with Buffer B supplemented with 0.3 M NaCl, 0.5 mM L-arginine, and 10 μM BH4. The column was washed with 25 ml Buffer B containing 0.5 mM L-arginine and 10 μM BH4, and then 25 ml of Buffer B only supplemented with 10 μM BH4 (without L-arginine). Neuronal NOS was eluted with 20 ml Buffer B supplemented with 10 mM 2′(3′)-AMP, 10 μM BH4 and 0.3 M NaCl. The 20 ml eluent was then concentrated to 5 ml by ultrafiltration. The above concentration operation was repeated twice more with 10 ml Buffer B supplemented with 10 µM BH4 to give the purified neuronal NOS.
Nitric oxide formation from NOS was monitored by the hemoglobin capture assay as described previously.
(§2) The selectivity of an inhibitor is defined as the ratio of the respective Ki values.

murine iNOS = target: T2, murine iNOS (Mus musculus, UniProt P29477); test: NOS enzyme inhibitory assay (hemoglobin capture), iNOS; details: for IC50: murine iNOS, 10 μM L-arginine
T2 construct: made in house; host or cells: E. coli (plasmid pCWiNOS)
Text: as §1
Enzyme inhibitory assay. All of the NOS isoforms used are recombinant enzymes overexpressed in E. coli from different sources.
iNOS expression: An overnight culture of pCWiNOS was used to inoculate (1:100) larger cultures of Terrific Broth media (12 g/L tryptone, 24 g/L yeast extract, 4 mL/L glycerol, 17 mM KH2PO4, and 72 mM K2HPO4) containing 50 μg/mL ampicillin and 34 μg/mL chloramphenicol at 37° C. At an OD600 of ˜0.5, the culture was cooled to 25° C. and induced by the addition of 1 mM IPTG (final concentration). After approximately 24 h of growth at 25° C., the cells were pelleted at 5300×g, transferred to 50 mL conical tubes, and stored at −80° C.
iNOS purification: Cell pellets from 1.0 L of culture were resuspended in sonication buffer (50 mM Hepes, pH 7.4, 10% glycerol, 10 μg/mL benzamidine, 5 μg/mL leupeptin, 0.2 mM of PMSF, and 1 μg/mL each of pepstatin, chymostatin, and antipain) and lysed by sonication. Centrifugation for 20 min at 13000×g yielded supernatant which contained iNOS active enzyme. iNOS supernatant was loaded onto 1 g of a 2′,5′-ADP-Sepharose 4B resin column. The column was then washed with 20 ml iNOS purification buffer (10 mM K2HPO4, 10% glycerol, 0.5 mM L-arginine, pH 7.4) and 10 μM BH4. Inducible NOS was eluted with 30 ml iNOS purification buffer supplemented with 10 mM 2′(3′)-AMP, 10 μM BH4, and 0.3 M NaCl. The eluent was concentrated to 5 ml by ultrafiltration. The above concentration operation was repeated three times more with 10 ml Hepes buffer supplemented with 10 μM BH4, to give purified inducible NOS.
(§3) Nitric oxide formation from NOS was monitored by the hemoglobin capture assay as described previously. (Hevel, J. M.; Marletta, M. A. Nitric Oxide Synthase Assays. Methods Enzymol. 1994, […], 250-258).
as §2

bovine eNOS = target: T3, bovine eNOS (Bos taurus, UniProt P29473); test: NOS enzyme inhibitory assay (hemoglobin capture), eNOS; details: for IC50: bovine eNOS, 10 μM L-arginine, * = no inhibition observed up to the concentration listed
T3 construct: made in house; host or cells: E. coli (plasmid Bov-eNOSpCW)
Experimental: as §1
Expression of bovine eNOS: An overnight culture of Bov-eNOSpCW was used to inoculate 0.5 liter (in a 2.8-liter Fernbach flask) of modified TB (20 g of yeast extract, 10 g of bacto-tryptone, 2.65 g of KH2PO4, 4.33 g of Na2HPO4 and 4 ml of glycerol per liter) containing ampicillin ([…]) and chloramphenicol ([…]). The cultures were grown to an OD600 of z0.8 at 22° C. (200 rpm) and induced with 0.5 mM IPTG. One hour before IPTG induction, d-aminolevulinic acid (0.5 mM final) was added and, at the time of IPTG induction, riboflavin ([…]) and ATP (1 mM final) were also added. After induction, the flasks were kept in the dark at 22° C. (200 rpm). The cells were harvested 48 h after induction, and the cell pellet was frozen at −80° C. until purification was carried out.
Purification of bovine eNOS. The purification was typically carried out with eNOS from 2 liters of E. coli culture. The eNOS protein was purified using a modification of the published protocol for nNOS (14). The cells were resuspended in buffer C [50 mM Tris-Cl, pH 7.8, 1 mM EDTA, 1 mM DTT, 10% glycerol (v/v), 150 mM NaCl, 0.1 mM phenylmethylsulfonyl fluoride, […]], lysed by pulsed sonication and then centrifuged to sediment the cell debris. The supernatant was applied to a 2′,5′-ADP Sepharose 4B column equilibrated in buffer D [50 mM Tris-Cl, pH 7.8, 0.1 mM EDTA, 0.1 mM dithiothreitol, 150 mM NaCl, 10% glycerol (v/v)]. The column was washed with 20 column volumes of buffer B and again with 20 column volumes of buffer B containing 600 mM NaCl. Finally, protein was eluted with buffer B containing 600 mM NaCl and 5 mM 2′-AMP. The fractions were screened for absorption in the Soret region (A400) and hemoprotein-containing fractions were pooled and concentrated (Centriprep 50, Amicon). Repeated dilution/concentration [50 mM Tris-Cl, pH 7.8, 0.1 mM EDTA, 0.1 mM dithiothreitol, 10% glycerol (vol/vol)] was used to reach a final concentration of 150 mM NaCl and commensurately reduce the 2′-AMP content. […] The purified eNOS is stored in the presence of 1 mM L-arginine.
eNOS washing: eNOS contains a significant amount of L-arginine, which will interfere with the enzyme assay. The L-arginine can be removed by several dilution and concentration steps using an Amico concentrator. The dilution buffer is 10 ml Tris-HCl 50 mM containing 0.1 mM EDTA, 400 mM NaCl, 10% glycerol and 1 mM beta-mercaptoethanol. The above dilution and concentration operation was repeated three times to give purified eNOS.
as §3, §2

[1] = Table 1a, apparent Ki calculated from IC50, Km […], read-out: calc. Ki nNOS
[2] = Table 1a, apparent Ki calculated from IC50, Km […], read-out: calc. Ki iNOS
[3] = Table 1a, apparent Ki calculated from IC50, Km 1.7 μM, read-out: calc. Ki eNOS
[4] = Table 1b, ratio of Ki values eNOS/nNOS
[5] = Table 1b, ratio of Ki values iNOS/nNOS

SMILES	Selectivity n/e (rat nNOS; Table 1a, Ki(eNOS)/Ki(nNOS))	Selectivity n/i (rat nNOS; Table 1a, Ki(iNOS)/Ki(nNOS))	Ki (rat nNOS; [1]) [µM]	IC50 (rat nNOS; Table 1a) [µM]	Ki (murine iNOS; [2]) [µM]	IC50 (murine iNOS; Table 1a) [µM]	Ki (bovine eNOS; [3]) [µM]	IC50 (bovine eNOS; Table 1a) [µM]	Selectivity n/e (rat nNOS; [4])	Selectivity n/i (rat nNOS; [5])	Ki (rat nNOS; Table 1b, read-out: Ki nNOS) [µM]	Ki (murine iNOS; Table 1b, read-out: Ki iNOS) [µM]	Ki (bovine eNOS; Table 1b, read-out: Ki eNOS) [µM]
Nc1cccc(CC2CNCC2NCC(N)Cc2ccccc2)n1 (racemic) [Compound P-32]	>632	129.09	2.3	20	297	655	> 1450	> 10000	–	–	–	–	–
Nc1cccc(C[C@H]2CNC[C@H]2NCCNCc2ccccc2)n1 (racemic) [Compound P-33]	>8619.5	136.36	1.18	10.2	161	355	> 10200	> 70000	–	–	–	–	–
Nc1cccc(CC2CNCC2NC2CCNC2)n1 (racemic) [Compound P-34]	192.54	138.06	1.26	11	174	384	243	1670	–	–	–	–	–
Nc1cccc(CC2CNCC2NC2CCNC2)n1 (racemic) [Compound P-35]	311.85	146.75	1.36	11.8	200	440	424	2920	–	–	–	–	–
Cc1cc(N)nc(C[C@H]2CNC[C@H]2NCCN)c1.Cl.Cl.Cl.Cl (racemic) [Compound P-46]	2462.2	58	0.095	0.83	5.5	12.1	234	1610	–	–	–	–	–
Cc1cc(N)nc(C[C@H]2CNC[C@@H]2NCCN)c1.Cl.Cl.Cl.Cl (racemic) [Compound P-47]	430.7	52.5	0.61	5.34	32	70.6	263	1810	–	–	–	–	–
Cc1cc(N)nc(C[C@H]2CNC[C@H]2NCCNCc2ccc(C(F)(F)F)cc2)c1.Cl.Cl.Cl.Cl (racemic) [Compound P-50]	–	–	–	–	–	–	–	–	428.4	71.5	0.197	14.1	84.4
Cc1cc(N)nc(C[C@H]2CNC[C@H]2NCCNCc2ccc(F)cc2)c1.Cl.Cl.Cl.Cl (racemic) [Compound P-51]	–	–	–	–	–	–	–	–	904.5	55.4	0.144	7.97	130
Cc1cc(N)nc(CC2CNCC2NCCNCc2cccc(C(F)(F)F)c2)c1.Cl.Cl.Cl.Cl (racemic) [Compound P-52]	–	–	–	–	–	–	–	–	563.6	65.8	0.206	13.6	116
Cc1cccc(CNCCN[C@@H]2CNC[C@@H]2Cc2cc(C)cc(N)n2)c1.Cl.Cl.Cl.Cl (racemic) [Compound P-53]	–	–	–	–	–	–	–	–	450.5	56.7	0.159	9.01	71.6
Cc1cc(N)nc(C[C@H]2CNC[C@@H]2NCCNCc2ccc(F)cc2)c1.Cl.Cl.Cl.Cl (racemic) [Compound P-57]	–	–	–	–	–	–	–	–	90.1	31.3	0.87	27.4	78.8
Cc1cc(N)nc(CC2CNCC2NCCNCc2cccc(C(F)(F)F)c2)c1.Cl.Cl.Cl.Cl (racemic) [Compound P-58]	–	–	–	–	–	–	–	–	146.1	79	0.74	58.7	109
Cc1cccc(CNCCN[C@H]2CNC[C@@H]2Cc2cc(C)cc(N)n2)c1.Cl.Cl.Cl.Cl (racemic) [Compound P-59]	–	–	–	–	–	–	–	–	305.5	127.1	0.66	83.9	202
Cc1cc(N)nc(CC2CNCC2NCCNCc2ccc(Cl)c(Cl)c2)c1.Cl.Cl.Cl.Cl (racemic) [Compound P-60]	–	–	–	–	–	–	–	–	260	22.6	0.157	3.56	40.8
Cc1cc(N)nc(C[C@H]2CNC[C@H]2NCCNCc2ccc(Cl)cc2Cl)c1.Cl.Cl.Cl.Cl (racemic) [Compound P-61]	–	–	–	–	–	–	–	–	272	70	0.11	7.7	29.9
Cc1cc(N)nc(C[C@H]2CNC[C@H]2NC[C@H](C)NCc2ccc(Cl)cc2)c1.Cl.Cl.Cl.Cl (racemic) [Compound P-63]	–	–	–	–	–	–	–	–	294.4	90	0.136	12.2	40
